Measured values reported in PMC7265341, “Quantifying CDK inhibitor selectivity in live cells” (Nature Communications, 2020).
Read-outs that look alike come from different tables or passages of the source.

Legend:
CDK5/CDK5R1 = CDK5/CDK5R1 (Homo sapiens, UniProt Q00535); experiment: NanoBRET live-cell target engagement, CDK5-NanoLuc/CDK5R1 in HEK-293; format: binding
CDK1/Cyclin E1 = CDK1/Cyclin E1 (Homo sapiens, UniProt P06493); experiment: NanoBRET live-cell target engagement, CDK1-NanoLuc/Cyclin E1 in HEK-293; format: binding; conditions: for inhibition at 10 µM: read-out: CDK1/E1 Inhibition at 10µM (%)
CDK17/Cyclin Y = CDK17/Cyclin Y (Homo sapiens, UniProt Q00537); experiment: NanoBRET live-cell target engagement, CDK17-NanoLuc/Cyclin Y in HEK-293; format: binding; conditions: for inhibition at 10 µM: read-out: CDK17/Y Inhibition at 10µM (%); for IC50: read-out: CDK17/Y IC50
CDK10/Cyclin L2 = CDK10/Cyclin L2 (Homo sapiens, UniProt Q15131); experiment: NanoBRET live-cell target engagement, CDK10-NanoLuc/Cyclin L2 in HEK-293; conditions: for inhibition at 10 µM: read-out: CDK10/L2 Inhibition at 10µM (%), 10µM
CDK11B/Cyclin L2 = CDK11B/Cyclin L2 (Homo sapiens, UniProt P21127); experiment: NanoBRET live-cell target engagement, CDK11B-NanoLuc/Cyclin L2 in HEK-293; format: binding; conditions: for inhibition at 10 µM: read-out: CDK11b/L2 Inhibition at 10µM (%); for IC50: read-out: CDK11b/L2 IC50
CDK2/Cyclin E1 = CDK2/Cyclin E1 (Homo sapiens, UniProt P24941); experiment: NanoBRET live-cell target engagement, CDK2-NanoLuc/Cyclin E1 in HEK-293; format: binding; conditions: 10µM, read-out: CDK2/E1 Inhibition at 10µM (%)
CDK4/Cyclin D1 = CDK4/Cyclin D1 (Homo sapiens, UniProt P11802); experiment: NanoBRET live-cell target engagement, NanoLuc-CDK4/Cyclin D1 in HEK-293; format: binding; conditions: for inhibition at 10 µM: read-out: CDK4/D1 Inhibition at 10µM (%)
CDK13/Cyclin K = CDK13/Cyclin K (Homo sapiens, UniProt Q14004); experiment: NanoBRET live-cell target engagement, CDK13-NanoLuc/Cyclin K in HEK-293; format: binding; conditions: 10µM, read-out: CDK13/K Inhibition at 10µM (%)
CDK6/Cyclin D1 = CDK6/Cyclin D1 (Homo sapiens, UniProt Q00534); experiment: NanoBRET live-cell target engagement, NanoLuc-CDK6/Cyclin D1 in HEK-293; format: binding; conditions: for inhibition at 10 µM: read-out: CDK6/D1 Inhibition at 10µM (%); for IC50: read-out: CDK6/D1 IC50
CDK6/Cyclin D1, sequence (Q00534 whole entry): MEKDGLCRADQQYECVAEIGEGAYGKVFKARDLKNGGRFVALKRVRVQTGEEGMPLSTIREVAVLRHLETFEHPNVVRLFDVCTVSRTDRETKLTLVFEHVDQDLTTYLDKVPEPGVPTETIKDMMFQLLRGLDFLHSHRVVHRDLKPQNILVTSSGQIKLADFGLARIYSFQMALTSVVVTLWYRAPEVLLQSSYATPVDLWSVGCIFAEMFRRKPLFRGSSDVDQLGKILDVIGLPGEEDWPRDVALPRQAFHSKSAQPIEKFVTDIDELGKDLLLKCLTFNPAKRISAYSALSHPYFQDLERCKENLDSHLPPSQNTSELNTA
CDK6/Cyclin D1, sequence (P24385 whole entry partner): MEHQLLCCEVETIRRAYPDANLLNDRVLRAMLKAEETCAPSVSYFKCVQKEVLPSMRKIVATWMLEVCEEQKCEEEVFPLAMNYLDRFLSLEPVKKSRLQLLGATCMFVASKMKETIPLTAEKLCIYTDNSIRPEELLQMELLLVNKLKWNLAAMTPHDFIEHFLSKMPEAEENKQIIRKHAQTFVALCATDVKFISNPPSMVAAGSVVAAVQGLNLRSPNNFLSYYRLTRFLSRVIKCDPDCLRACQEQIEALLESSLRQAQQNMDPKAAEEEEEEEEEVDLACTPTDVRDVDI

CDK13/Cyclin K, sequence (O75909 whole entry): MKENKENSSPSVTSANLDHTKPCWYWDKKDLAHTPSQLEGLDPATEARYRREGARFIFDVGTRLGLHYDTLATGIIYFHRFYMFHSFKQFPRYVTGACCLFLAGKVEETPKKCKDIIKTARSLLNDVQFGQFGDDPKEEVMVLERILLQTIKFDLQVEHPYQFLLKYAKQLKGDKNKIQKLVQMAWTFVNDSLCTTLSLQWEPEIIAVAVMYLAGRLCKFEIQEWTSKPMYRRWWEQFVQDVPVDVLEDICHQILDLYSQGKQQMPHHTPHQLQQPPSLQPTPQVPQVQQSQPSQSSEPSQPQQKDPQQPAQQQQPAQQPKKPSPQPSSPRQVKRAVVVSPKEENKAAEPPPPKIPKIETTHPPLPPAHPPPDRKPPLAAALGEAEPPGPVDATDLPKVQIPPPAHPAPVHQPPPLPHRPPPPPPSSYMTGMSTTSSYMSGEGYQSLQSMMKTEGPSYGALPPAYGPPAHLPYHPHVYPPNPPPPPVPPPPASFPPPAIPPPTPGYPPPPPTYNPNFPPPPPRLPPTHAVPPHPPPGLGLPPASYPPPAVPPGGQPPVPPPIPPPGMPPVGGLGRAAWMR
CDK13/Cyclin K, sequence (Q14004 other isoform, or with tags, fused parts or gaps): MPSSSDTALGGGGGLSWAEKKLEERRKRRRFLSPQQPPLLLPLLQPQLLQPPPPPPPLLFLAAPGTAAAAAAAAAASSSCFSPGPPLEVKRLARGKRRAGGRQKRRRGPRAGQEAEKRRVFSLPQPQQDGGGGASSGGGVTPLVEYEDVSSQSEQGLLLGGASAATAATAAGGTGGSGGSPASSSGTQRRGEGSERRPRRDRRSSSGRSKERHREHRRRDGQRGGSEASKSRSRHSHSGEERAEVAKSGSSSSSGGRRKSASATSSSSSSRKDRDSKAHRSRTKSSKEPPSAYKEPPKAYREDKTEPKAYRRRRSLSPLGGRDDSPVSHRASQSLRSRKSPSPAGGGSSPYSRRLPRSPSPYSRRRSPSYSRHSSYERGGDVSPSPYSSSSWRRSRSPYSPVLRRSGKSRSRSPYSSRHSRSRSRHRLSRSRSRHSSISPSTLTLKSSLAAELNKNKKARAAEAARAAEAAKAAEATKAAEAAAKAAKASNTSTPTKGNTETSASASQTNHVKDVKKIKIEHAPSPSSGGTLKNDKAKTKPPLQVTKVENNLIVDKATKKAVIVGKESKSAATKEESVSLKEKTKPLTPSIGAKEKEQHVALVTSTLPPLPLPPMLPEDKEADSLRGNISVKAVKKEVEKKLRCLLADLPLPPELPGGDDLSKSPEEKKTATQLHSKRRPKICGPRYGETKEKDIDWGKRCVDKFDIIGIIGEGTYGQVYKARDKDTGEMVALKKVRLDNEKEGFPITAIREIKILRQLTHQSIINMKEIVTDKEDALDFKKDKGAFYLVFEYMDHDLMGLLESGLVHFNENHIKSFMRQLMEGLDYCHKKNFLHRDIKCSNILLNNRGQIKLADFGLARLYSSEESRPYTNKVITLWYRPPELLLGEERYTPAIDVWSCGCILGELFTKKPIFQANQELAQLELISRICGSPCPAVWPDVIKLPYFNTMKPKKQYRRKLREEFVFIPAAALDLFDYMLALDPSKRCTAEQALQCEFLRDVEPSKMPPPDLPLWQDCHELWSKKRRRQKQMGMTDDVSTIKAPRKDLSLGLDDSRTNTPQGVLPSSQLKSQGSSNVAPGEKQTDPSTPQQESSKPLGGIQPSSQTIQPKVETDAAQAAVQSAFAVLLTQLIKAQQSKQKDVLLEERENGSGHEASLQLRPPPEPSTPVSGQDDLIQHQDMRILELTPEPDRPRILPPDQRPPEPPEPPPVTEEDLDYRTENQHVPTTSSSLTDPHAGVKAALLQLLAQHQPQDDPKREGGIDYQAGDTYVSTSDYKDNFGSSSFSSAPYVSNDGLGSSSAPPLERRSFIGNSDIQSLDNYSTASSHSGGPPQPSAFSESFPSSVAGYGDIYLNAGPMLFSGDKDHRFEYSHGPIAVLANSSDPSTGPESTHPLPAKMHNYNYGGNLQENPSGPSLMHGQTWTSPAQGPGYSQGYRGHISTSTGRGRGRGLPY
CDK17/Cyclin Y, sequence (Q00537 whole entry): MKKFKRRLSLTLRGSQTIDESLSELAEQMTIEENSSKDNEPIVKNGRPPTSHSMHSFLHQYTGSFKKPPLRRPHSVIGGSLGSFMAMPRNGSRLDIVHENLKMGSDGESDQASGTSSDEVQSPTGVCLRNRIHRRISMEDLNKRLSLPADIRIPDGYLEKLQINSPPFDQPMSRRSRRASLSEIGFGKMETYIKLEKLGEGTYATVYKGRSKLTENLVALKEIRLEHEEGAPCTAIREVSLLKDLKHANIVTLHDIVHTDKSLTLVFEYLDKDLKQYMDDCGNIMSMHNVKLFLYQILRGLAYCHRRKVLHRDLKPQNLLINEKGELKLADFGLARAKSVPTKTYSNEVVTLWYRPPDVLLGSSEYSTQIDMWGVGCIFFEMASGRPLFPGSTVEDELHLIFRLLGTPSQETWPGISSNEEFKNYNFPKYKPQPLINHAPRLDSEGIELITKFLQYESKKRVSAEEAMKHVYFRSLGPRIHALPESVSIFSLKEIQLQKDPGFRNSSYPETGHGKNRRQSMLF
CDK17/Cyclin Y, sequence (Q8ND76 whole entry partner): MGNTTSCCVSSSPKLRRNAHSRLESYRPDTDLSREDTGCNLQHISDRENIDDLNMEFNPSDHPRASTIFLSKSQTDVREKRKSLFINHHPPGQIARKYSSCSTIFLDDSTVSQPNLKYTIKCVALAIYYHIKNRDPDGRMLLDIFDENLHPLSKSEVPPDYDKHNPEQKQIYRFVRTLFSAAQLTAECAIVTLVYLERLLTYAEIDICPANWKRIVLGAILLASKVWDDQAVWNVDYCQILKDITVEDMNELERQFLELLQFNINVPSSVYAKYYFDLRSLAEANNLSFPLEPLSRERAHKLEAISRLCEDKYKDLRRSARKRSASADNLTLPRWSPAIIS
CDK1/Cyclin E1, sequence (P06493 whole entry): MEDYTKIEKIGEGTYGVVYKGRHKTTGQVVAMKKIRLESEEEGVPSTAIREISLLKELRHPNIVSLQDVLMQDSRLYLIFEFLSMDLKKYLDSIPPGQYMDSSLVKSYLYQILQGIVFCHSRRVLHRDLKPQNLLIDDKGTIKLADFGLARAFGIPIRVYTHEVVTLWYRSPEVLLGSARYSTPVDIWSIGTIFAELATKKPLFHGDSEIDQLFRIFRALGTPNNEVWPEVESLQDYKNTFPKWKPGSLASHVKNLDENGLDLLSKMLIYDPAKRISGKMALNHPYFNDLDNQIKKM
CDK1/Cyclin E1, sequence (P24864 whole entry partner): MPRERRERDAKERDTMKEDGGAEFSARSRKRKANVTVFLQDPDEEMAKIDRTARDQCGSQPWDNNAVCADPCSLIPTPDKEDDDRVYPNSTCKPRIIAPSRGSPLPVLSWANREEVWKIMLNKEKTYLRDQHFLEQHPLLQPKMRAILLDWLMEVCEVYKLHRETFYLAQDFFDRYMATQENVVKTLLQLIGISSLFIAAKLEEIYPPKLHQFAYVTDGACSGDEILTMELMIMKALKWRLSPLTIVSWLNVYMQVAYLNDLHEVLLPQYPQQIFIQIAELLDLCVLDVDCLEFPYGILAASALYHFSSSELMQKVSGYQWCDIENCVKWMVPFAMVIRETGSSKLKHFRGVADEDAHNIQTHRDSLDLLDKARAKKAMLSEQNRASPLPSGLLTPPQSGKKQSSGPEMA
CDK5/CDK5R1, sequence (Q00535 whole entry): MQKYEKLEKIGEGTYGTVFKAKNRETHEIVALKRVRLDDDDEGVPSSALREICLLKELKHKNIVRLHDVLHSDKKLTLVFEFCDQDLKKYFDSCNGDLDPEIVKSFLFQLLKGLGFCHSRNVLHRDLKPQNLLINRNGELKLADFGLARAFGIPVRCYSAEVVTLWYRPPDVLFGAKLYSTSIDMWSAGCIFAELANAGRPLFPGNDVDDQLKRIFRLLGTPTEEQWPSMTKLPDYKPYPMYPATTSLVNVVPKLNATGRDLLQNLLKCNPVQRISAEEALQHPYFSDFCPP
CDK5/CDK5R1, sequence (Q15078 whole entry partner): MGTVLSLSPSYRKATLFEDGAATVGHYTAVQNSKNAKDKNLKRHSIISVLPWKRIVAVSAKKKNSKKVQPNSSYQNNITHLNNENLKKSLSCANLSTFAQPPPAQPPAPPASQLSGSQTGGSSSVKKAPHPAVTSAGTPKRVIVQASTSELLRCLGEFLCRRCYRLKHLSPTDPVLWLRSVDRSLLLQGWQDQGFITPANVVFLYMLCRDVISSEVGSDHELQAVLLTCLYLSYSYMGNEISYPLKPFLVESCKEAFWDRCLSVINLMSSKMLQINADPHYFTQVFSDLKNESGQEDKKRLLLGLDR

IC50 (CDK5/CDK5R1; independent experiment 1, read-out: CDK5/CDK5R1 IC50): 190 nM
IC50 (CDK5/CDK5R1; independent experiment 2, read-out: CDK5/CDK5R1 IC50): 180 nM
IC50 (CDK5/CDK5R1; live HEK-293, 2 h, mean ± S.E.M. (n=3) or mean (n=2), read-out: IC50 for CDK/cyclin complexes, CDK5/R1): 180 nM
inhibition at 10 µM (CDK1/Cyclin E1; average of experiments): 95.4%
inhibition at 10 µM (CDK1/Cyclin E1; independent experiment 1): 95%
inhibition at 10 µM (CDK1/Cyclin E1; independent experiment 2): 95.8%
IC50 (CDK1/Cyclin E1; average (± SEM where n=3), read-out: CDK1/E1 IC50): 200 nM
IC50 (CDK1/Cyclin E1; independent experiment 1, read-out: CDK1/E1 IC50): 200 nM
IC50 (CDK1/Cyclin E1; independent experiment 2, read-out: CDK1/E1 IC50): 210 nM
IC50 (CDK1/Cyclin E1; live HEK-293, 2 h, mean ± S.E.M. (n=3) or mean (n=2), read-out: IC50 for CDK/cyclin complexes, CDK1/E1): 200 nM
inhibition at 10 µM (CDK17/Cyclin Y; average of experiments): 94.8%
inhibition at 10 µM (CDK17/Cyclin Y; independent experiment 1): 96.6%
inhibition at 10 µM (CDK17/Cyclin Y; independent experiment 2): 93.1%
IC50 (CDK17/Cyclin Y; average (± SEM where n=3)): 49 nM
IC50 (CDK17/Cyclin Y; independent experiment 1): 50 nM
IC50 (CDK17/Cyclin Y; independent experiment 2): 47 nM
IC50 (CDK10/Cyclin L2; CDK10/L2 IC50 (nM), average (± SEM where n=3)): 520 nM
IC50 (CDK10/Cyclin L2; CDK10/L2 IC50 (nM), independent experiment 1): 530 nM
IC50 (CDK10/Cyclin L2; CDK10/L2 IC50 (nM), independent experiment 2): 520 nM
IC50 (CDK10/Cyclin L2; IC50 for CDK/cyclin complexes, CDK10/L2, live HEK-293, 2 h, mean ± S.E.M. (n=3) or mean (n=2)): 520 nM
inhibition at 10 µM (CDK10/Cyclin L2; average of experiments): 88%
inhibition at 10 µM (CDK10/Cyclin L2; independent experiment 1): 81.7%
inhibition at 10 µM (CDK10/Cyclin L2; independent experiment 2): 94.4%
inhibition at 10 µM (CDK11B/Cyclin L2; average of experiments): 94.9%
inhibition at 10 µM (CDK11B/Cyclin L2; independent experiment 1): 95.5%
inhibition at 10 µM (CDK11B/Cyclin L2; independent experiment 2): 94.4%
IC50 (CDK11B/Cyclin L2; average (± SEM where n=3)): 51 nM
IC50 (CDK11B/Cyclin L2; independent experiment 1): 49 nM
IC50 (CDK11B/Cyclin L2; independent experiment 2): 54 nM
inhibition at 10 µM (CDK2/Cyclin E1; average of experiments): 96.5%
inhibition at 10 µM (CDK2/Cyclin E1; independent experiment 1): 98%
inhibition at 10 µM (CDK2/Cyclin E1; independent experiment 2): 95%
inhibition at 10 µM (CDK4/Cyclin D1; average of experiments): 99.8%
inhibition at 10 µM (CDK4/Cyclin D1; independent experiment 1): 100%
inhibition at 10 µM (CDK4/Cyclin D1; independent experiment 2): 99.2%
IC50 (CDK4/Cyclin D1; average (± SEM where n=3), read-out: CDK4/D1 IC50): 140 nM
IC50 (CDK4/Cyclin D1; independent experiment 1, read-out: CDK4/D1 IC50): 140 nM
IC50 (CDK4/Cyclin D1; independent experiment 2, read-out: CDK4/D1 IC50): 150 nM
IC50 (CDK4/Cyclin D1; live HEK-293, 2 h, mean ± S.E.M. (n=3) or mean (n=2), read-out: IC50 for CDK/cyclin complexes, CDK4/D1): 140 nM
inhibition at 10 µM (CDK13/Cyclin K; average of experiments): 63.7%
inhibition at 10 µM (CDK13/Cyclin K; independent experiment 1): 47.7%
inhibition at 10 µM (CDK13/Cyclin K; independent experiment 2): 79.6%
inhibition at 10 µM (CDK6/Cyclin D1; average of experiments): 98.3%
inhibition at 10 µM (CDK6/Cyclin D1; independent experiment 1): 97.3%
inhibition at 10 µM (CDK6/Cyclin D1; independent experiment 2): 99.2%
IC50 (CDK6/Cyclin D1; average (± SEM where n=3)): 270 nM
IC50 (CDK6/Cyclin D1; independent experiment 1): 290 nM
IC50 (CDK6/Cyclin D1; independent experiment 2): 250 nM
Compound: CN1C/C=C/CCOc2cccc(c2)-c2ccnc(n2)Nc2cccc(c2)C1 [SB1317]
